Assay results as given in PubChem BioAssay (NCI).
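A five-concentration, 48-hour dose response in 96-well plates underlies each endpoint, interpolated linearly between surrounding concentrations. GI50 marks 50% less growth. TGI: concentration producing complete growth inhibition.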

Legend:
Assay in all cases: DTP human tumour cell line panel, 48 h
PC-3 prostate = test system: PC-3 prostate
KM12 colon = test system: KM12 colon
HOP-62 NSCLC = test system: HOP-62 NSCLC
T-47D breast = test system: T-47D breast
LOX IMVI melanoma = test system: LOX IMVI melanoma
RPMI-8226 leukemia = test system: RPMI-8226 leukemia
HT29 colon = test system: HT29 colon
NCI-H23 lung = test system: NCI-H23 lung
UACC-257 melanoma = test system: UACC-257 melanoma
UO-31 renal = test system: UO-31 renal
SNB-75 CNS = test system: SNB-75 CNS
NCI-H522 lung = test system: NCI-H522 lung
HCT-116 colon = test system: HCT-116 colon
SNB-19 CNS = test system: SNB-19 CNS
NCI/ADR-RES ovarian = test system: NCI/ADR-RES ovarian
SK-MEL-2 melanoma = test system: SK-MEL-2 melanoma
A498 renal = test system: A498 renal
SW-620 colon = test system: SW-620 colon
HCT-15 colon = test system: HCT-15 colon
MALME-3M melanoma = test system: MALME-3M melanoma
UACC-62 melanoma = test system: UACC-62 melanoma
OVCAR-4 ovarian = test system: OVCAR-4 ovarian
M14 melanoma = test system: M14 melanoma
BT-549 breast = test system: BT-549 breast
IGROV1 ovarian = test system: IGROV1 ovarian
K-562 leukemia = test system: K-562 leukemia
OVCAR-3 ovarian = test system: OVCAR-3 ovarian
MCF7 breast = test system: MCF7 breast
NCI-H226 lung = test system: NCI-H226 lung
SF-268 CNS = test system: SF-268 CNS
HS 578T breast = test system: HS 578T breast
SR leukemia = test system: SR leukemia
EKVX NSCLC = test system: EKVX NSCLC
HOP-92 NSCLC = test system: HOP-92 NSCLC
NCI-H460 lung = test system: NCI-H460 lung
DU-145 prostate = test system: DU-145 prostate
HL-60(TB) leukemia = test system: HL-60(TB) leukemia
MOLT-4 leukemia = test system: MOLT-4 leukemia
COLO 205 colon = test system: COLO 205 colon
SK-MEL-28 melanoma = test system: SK-MEL-28 melanoma
U251 CNS = test system: U251 CNS
TK-10 renal = test system: TK-10 renal
SK-MEL-5 melanoma = test system: SK-MEL-5 melanoma
MDA-MB-435 = test system: MDA-MB-435
ACHN renal = test system: ACHN renal
SF-539 CNS = test system: SF-539 CNS
SF-295 CNS = test system: SF-295 CNS
HCC-2998 colon = test system: HCC-2998 colon
CAKI-1 renal = test system: CAKI-1 renal
CCRF-CEM leukemia = test system: CCRF-CEM leukemia
SN12C renal = test system: SN12C renal
A549 NSCLC = test system: A549 NSCLC
MDA-MB-231 breast = test system: MDA-MB-231 breast
786-0 renal = test system: 786-0 renal
OVCAR-8 ovarian = test system: OVCAR-8 ovarian
OVCAR-5 ovarian = test system: OVCAR-5 ovarian
SK-OV-3 ovarian = test system: SK-OV-3 ovarian

Compound: CC(=O)Nc1nc(C)c(-c2csc(Nc3ccccc3)n2)s1
- GI50 (PC-3 prostate): 3 µM
- TGI (PC-3 prostate): 23.5 µM
- GI50 (KM12 colon): 5.6 µM
- TGI (KM12 colon): 19.6 µM
- GI50 (HOP-62 NSCLC): 6.55 µM
- TGI (HOP-62 NSCLC): 21.5 µM
- GI50 (T-47D breast): 1.21 µM
- TGI (T-47D breast): 6.55 µM
- GI50 (LOX IMVI melanoma): 3.97 µM
- TGI (LOX IMVI melanoma): 17 µM
- GI50 (RPMI-8226 leukemia): 3.57 µM
- TGI (RPMI-8226 leukemia): 31.7 µM
- GI50 (HT29 colon): 3.89 µM
- TGI (HT29 colon): 21.8 µM
- GI50 (NCI-H23 lung): 4.96 µM
- TGI (NCI-H23 lung): 20.7 µM
- GI50 (UACC-257 melanoma): 10.9 µM
- TGI (UACC-257 melanoma): 23.6 µM
- GI50 (UO-31 renal): 2.55 µM
- TGI (UO-31 renal): 12.9 µM
- GI50 (SNB-75 CNS): 4.31 µM
- TGI (SNB-75 CNS): 18.1 µM
- GI50 (NCI-H522 lung): 6.46 µM
- TGI (NCI-H522 lung): 22.9 µM
- GI50 (HCT-116 colon): 3.76 µM
- TGI (HCT-116 colon): 24.3 µM
- GI50 (SNB-19 CNS): 8.09 µM
- TGI (SNB-19 CNS): 20.6 µM
- GI50 (NCI/ADR-RES ovarian): 5.16 µM
- TGI (NCI/ADR-RES ovarian): 23.2 µM
- GI50 (SK-MEL-2 melanoma): 10.7 µM
- TGI (SK-MEL-2 melanoma): 24.4 µM
- GI50 (A498 renal): 1.49 µM
- TGI (A498 renal): 7.87 µM
- GI50 (SW-620 colon): 9.82 µM
- TGI (SW-620 colon): 23.1 µM
- GI50 (HCT-15 colon): 1.96 µM
- TGI (HCT-15 colon): 13.5 µM
- GI50 (MALME-3M melanoma): 2.12 µM
- TGI (MALME-3M melanoma): 11.7 µM
- GI50 (UACC-62 melanoma): 2.34 µM
- TGI (UACC-62 melanoma): 12.6 µM
- GI50 (OVCAR-4 ovarian): 6.5 µM
- TGI (OVCAR-4 ovarian): 26.6 µM
- GI50 (M14 melanoma): 3.55 µM
- TGI (M14 melanoma): 16.4 µM
- GI50 (BT-549 breast): 2.06 µM
- TGI (BT-549 breast): 8.76 µM
- GI50 (IGROV1 ovarian): 2.14 µM
- TGI (IGROV1 ovarian): 7.72 µM
- GI50 (K-562 leukemia): 3.68 µM
- TGI (K-562 leukemia): > 100 µM
- GI50 (OVCAR-3 ovarian): 4.01 µM
- TGI (OVCAR-3 ovarian): 15.7 µM
- GI50 (MCF7 breast): 2.16 µM
- TGI (MCF7 breast): 12 µM
- GI50 (NCI-H226 lung): 3.12 µM
- TGI (NCI-H226 lung): 15.4 µM
- GI50 (SF-268 CNS): 5.4 µM
- TGI (SF-268 CNS): 19.3 µM
- GI50 (HS 578T breast): 2.35 µM
- TGI (HS 578T breast): 8.06 µM
- GI50 (SR leukemia): 2.37 µM
- TGI (SR leukemia): > 100 µM
- GI50 (EKVX NSCLC): 2.94 µM
- TGI (EKVX NSCLC): 13.6 µM
- GI50 (HOP-92 NSCLC): 1.57 µM
- TGI (HOP-92 NSCLC): 8.28 µM
- GI50 (NCI-H460 lung): 3.38 µM
- TGI (NCI-H460 lung): 14.1 µM
- GI50 (DU-145 prostate): 5.23 µM
- TGI (DU-145 prostate): 17.5 µM
- GI50 (HL-60(TB) leukemia): 10.5 µM
- TGI (HL-60(TB) leukemia): 33.9 µM
- GI50 (MOLT-4 leukemia): 3.92 µM
- TGI (MOLT-4 leukemia): 28.6 µM
- GI50 (COLO 205 colon): 7.66 µM
- TGI (COLO 205 colon): 26.8 µM
- GI50 (SK-MEL-28 melanoma): 4.13 µM
- TGI (SK-MEL-28 melanoma): 17.2 µM
- GI50 (U251 CNS): 3.39 µM
- TGI (U251 CNS): 20.8 µM
- GI50 (TK-10 renal): 8.6 µM
- TGI (TK-10 renal): 24 µM
- GI50 (SK-MEL-5 melanoma): 4.31 µM
- TGI (SK-MEL-5 melanoma): 16.2 µM
- GI50 (MDA-MB-435): 6.07 µM
- TGI (MDA-MB-435): 19.7 µM
- GI50 (ACHN renal): 4.25 µM
- TGI (ACHN renal): 15.9 µM
- GI50 (SF-539 CNS): 4.07 µM
- TGI (SF-539 CNS): 15.5 µM
- GI50 (SF-295 CNS): 2.32 µM
- TGI (SF-295 CNS): 13 µM
- GI50 (HCC-2998 colon): 8.83 µM
- TGI (HCC-2998 colon): 21.4 µM
- GI50 (CAKI-1 renal): 4.15 µM
- TGI (CAKI-1 renal): 16.1 µM
- GI50 (CCRF-CEM leukemia): 4.11 µM
- TGI (CCRF-CEM leukemia): 82 µM
- GI50 (SN12C renal): 3.6 µM
- TGI (SN12C renal): 16.3 µM
- GI50 (A549 NSCLC): 6.39 µM
- TGI (A549 NSCLC): 27 µM
- GI50 (MDA-MB-231 breast): 6.59 µM
- TGI (MDA-MB-231 breast): 21.2 µM
- GI50 (786-0 renal): 3.25 µM
- TGI (786-0 renal): 16.1 µM
- GI50 (OVCAR-8 ovarian): 6.81 µM
- TGI (OVCAR-8 ovarian): 20.5 µM
- GI50 (OVCAR-5 ovarian): 5.32 µM
- TGI (OVCAR-5 ovarian): 20.6 µM
- GI50 (SK-OV-3 ovarian): 3.43 µM
- TGI (SK-OV-3 ovarian): 42.8 µM
